Assay results: US11753433B2, “Methods of synthesizing substituted purine compounds” (Epizyme, Inc., priority 2013, dated 2023)

Legend:
[1] = Dynamic vapor sorption (DVS) hygroscopicity; type: physicochemical; conditions: at 80% RH, 25° C.
Protocol: (peak temperature) which is accompanied by 5.9 wt % weight loss up to ˜150° C. in the TGA curve (FIG. 3). […] A solid is considered moderately hygroscopic when water uptake at 25° C./80% RH is between 2-15 wt % based on criteria of European Pharmacopeia. […] Form B of EP-1 trihydrate (x is 3) is a trihydrate as confirmed by single crystal analysis. The experimental XRPD pattern of Form B matches well with the simulated one from single crystal data (FIG. 6). This was also confirmed by DSC and TGA data (FIG. 7 and FIG. 8, respectively). DSC data indicates Form B dehydrates at ˜132° C. […] Form B is slightly hygroscopic as evidenced by a weight change of ˜0.3% between 0% and 95% RH (FIG. 9), (data collection was programmed from 95% RH-0% RH-95% RH at a step size of 10% RH at 25° C.).

[2] = Solubility in Simulated Gastric Fluid (SGF) at 37° C.; type: physicochemical; conditions: for Resulting Solid: XRPD; for Solubility: calculated using free base content
Protocol: To study if Form A and Form B would perform differently in stomach, the solubilities of Form A and Form B were measured in Simulated Gastric Fluid (SGF, see below for SGF preparation) at 37° C. […] The remaining solids after each time point were subject to XRPD analysis. […] Weigh appropriate amount of hydrochloride (HCl) and sodium chloride (NaCl) into a 1-L flask followed by addition of 1-L deionized water. The mixture was stirred until all solids are dissolved. Check pH value with a pH-meter and adjust the pH to 1.8 with HCl (1N) or NaOH (1N).

CC(C)N(CC1O[C@@H](n2cnc3c(N)ncnc32)[C@H](O)[C@@H]1O)C1CC(CCc2nc3cc(C(C)(C)C)ccc3[nH]2)C1 (stereo partly drawn) [Form A, (2R,3R,4S,5R)-2-(6-amino-9H-purin-9-yl)-5-((((1r,3S)-3-(2-(5-(tert-butyl)-1H-benzo[d]imidazol-2-yl)ethyl)cyclobutyl)(isopropyl)amino)methyl)tetrahydrofuran-3,4-diol hydrate]
water adsorption measured by dynamic vapor sorption (DVS) [1]: ~5.8 wt %
Final pH [2]: 5.1
time of conversion of Form A to Form B in SGF [2]: ≤ 15 min
Resulting Solid ([2]; 15 min): Type B
Solubility ([2]; 15 min): 5400 µg/mL
Resulting Solid ([2]; 30 min): Type B
Solubility ([2]; 30 min): 5500 µg/mL
Resulting Solid ([2]; 60 min): Type B
Solubility ([2]; 60 min): 5300 µg/mL
